For data set [1], the target named is T1, human cloned 5-HT6 receptors (Homo sapiens, UniProt P50406).
T1 construct: expressed in transfected cells; host or cells: HeLa cells
The experiment in a line: 5-HT6 binding affinity ([3H]-LSD displacement, membranes of Hela cells). The procedure:
The affinity of test compounds for the serotonin 5-HT6 receptor is evaluated in the following manner. Cultured Hela cells expressing human cloned 5-HT6 receptors are harvested and centrifuged at low speed (1,000×g) for 10.0 min to remove the culture media. The harvested cells are suspended in half volume of fresh physiological phosphate buffered saline solution and recentrifuged at the same speed. This operation is repeated. The collected cells are then homogenized in ten volumes of 50 mM Tris.HCl (pH 7.4) and 0.5 mM EDTA. The homogenate is centrifuged at 40,000×g for 30.0 min and the precipitate is collected. The obtained pellet is resuspended in 10 volumes of Tris.HCl buffer and recentrifuged at the same speed. The final pellet is suspended in a small volume of Tris.HCl buffer and the tissue protein content is determined in aliquots of 10-25 μl volumes. Bovine Serum Albumin is used as the standard in the protein determination according to the method described in Lowry et al., J. Biol. Chem., 193:265 (1951). The volume of the suspended cell membranes is adjusted to give a tissue protein concentration of 1.0 mg/ml of suspension. The prepared membrane suspension (10 times concentrated) is aliquoted in 1.0 ml volumes and stored at −70° C. until used in subsequent binding experiments.
Binding experiments are performed in a 96 well microtiter plate format, in a total volume of 200 μl. […] The test compounds are added in 20.0 μl volume.
The reaction is allowed to proceed in the dark for 120 min at room temperature, at which time, the bound ligand-receptor complex is filtered off on a 96 well unifilter with a Packard Filtermate® 196 Harvester. The bound complex caught on the filter disk is allowed to air dry and the radioactivity is measured in a Packard TopCount® equipped with six photomultiplier detectors, after the addition of 40.0 μl Microscint®-20 scintillant to each shallow well. The unifilter plate is heat-sealed and counted in a PackardTopCount® with a tritium efficiency of 31.0%.
Binding in the presence of varying concentrations of test compound is expressed as a percentage of specific binding in the absence of test compound. The results are plotted as log % bound versus log concentration of test compound. […] A linear regression line of data points is plotted, from which the IC50 value is determined and the Ki value is determined based upon the following equation: Ki=IC50/(1+L/KD) where L is the concentration of the radioactive ligand used and KD is the dissociation constant of the ligand for the receptor, both expressed in nM.

[2] abbreviates: [3H]-LSD 3.0 nM, Hela cell membranes expressing human cloned 5-HT6 receptors, 120 min at room temperature, read-out: 5-HT6 Binding Ki.

Where a name gives a salt, the structure may show the parent alone. Read-outs that look alike come from different tables or passages of the source.

T1 sequence (P50406 whole entry): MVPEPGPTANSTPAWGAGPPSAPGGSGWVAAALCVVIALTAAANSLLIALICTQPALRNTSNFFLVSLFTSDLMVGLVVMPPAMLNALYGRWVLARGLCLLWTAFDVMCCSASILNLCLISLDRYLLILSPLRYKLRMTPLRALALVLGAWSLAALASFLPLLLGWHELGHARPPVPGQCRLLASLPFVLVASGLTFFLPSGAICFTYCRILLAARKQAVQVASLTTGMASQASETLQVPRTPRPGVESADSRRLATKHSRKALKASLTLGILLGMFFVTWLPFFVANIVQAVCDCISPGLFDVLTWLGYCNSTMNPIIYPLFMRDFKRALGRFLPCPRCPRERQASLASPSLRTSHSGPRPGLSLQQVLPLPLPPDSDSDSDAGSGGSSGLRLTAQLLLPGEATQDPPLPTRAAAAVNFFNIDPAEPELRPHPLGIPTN

Turning to `O=S(=O)(c1ccccc1)c1cn(CC2CCNCC2)c2ccccc12` [Example 4, 3-(Phenylsulfonyl)-1-(Piperidin-4-ylmethyl)-1H-indole Hydrochloride], in data set [1] (setting [2]), the Ki came out at 27 nM. On the same count and under the same terms, under `O=S(=O)(c1cccc(F)c1)c1cn(C2CCCNC2)c2ccc(Cl)cc12` (stereo not drawn) [Example 22] stands 29 nM; under `O=S(=O)(c1cccc(F)c1)c1cn(C2CCCNC2)c2ccc(F)cc12` (stereo not drawn) [Example 20], 4 nM. Turning to `COc1ccc2c(c1)c(S(=O)(=O)c1cccc(F)c1)cn2C1CCCN(C)C1` (stereo not drawn) [Example 19], the melting point lay within 262 to 265 °C. The Ki in data set [1] (setting [2]) amounted to 68 nM. For `O=S(=O)(c1cn(C2CCCNC2)c2ccccc12)c1cccc2cccnc12` (stereo not drawn) [Example 15], the melting point is > 195 °C (dec.). In addition, the Ki in data set [1] (setting [2]) was 6 nM.

As to `CN1CCCC(n2cc(S(=O)(=O)c3cccc(F)c3)c3cc(Cl)ccc32)C1` (stereo not drawn) [Example 23], the melting point was in the range of 242 to 245 °C. In addition, the Ki in data set [1] (setting [2]) amounted to 62 nM.

As to `O=S(=O)(c1cccc2ccccc12)c1cn(C2CCCNC2)c2ccccc12` (stereo not drawn) [Example 14], the melting point was > 180 °C (dec.). For the same molecule, the Ki in data set [1] (setting [2]) was 21 nM. The molecule `O=S(=O)(c1ccccc1)c1cn(C2CCN(Cc3ccccc3)CC2)c2ccccc12` [Example 12] registered a melting point of 288 to 291 °C. In data set [1], this molecule came in with a Ki of 49 nM. As to `O=S(=O)(c1ccccc1)c1cn(C2CCCNC2)c2ccccc12` (stereo not drawn) [Example 9, 3-(Phenylsulfonyl)-1-(piperidin-3-yl)-1H-indole Hydrochloride], in data set [1] (setting [2]), the Ki worked out at 13 nM.

As for `O=S(=O)(c1cccc(Cl)c1)c1cn(C2CCCNC2)c2ccccc12` (stereo not drawn) [Example 17], the melting point was > 150 °C (dec.). In addition, the Ki in data set [1] (setting [2]) came to 5 nM. Regarding `O=S(=O)(c1ccccc1)c1cn(C2CCNCC2)c2ccccc12` [Example 13], the melting point is 294 to 297 °C. Also, the Ki in data set [1] (setting [2]) turned out to be 91 nM. On to `O=S(=O)(c1ccccc1)c1cn(C2CCCN(Cc3ccccc3)C2)c2ccccc12` (stereo not drawn) [Example 8, 1-(1-Benzylpiperidin-3-yl)-3-(phenylsulfonyl)-1H-indole], for which the Ki in data set [1] (setting [2]) turned out to be 122 nM. `COc1ccc2c(c1)c(S(=O)(=O)c1cccc(F)c1)cn2C1CCCNC1` (stereo not drawn) [Example 18] had a melting point of 267 to 270 °C. For the same molecule, the Ki in data set [1] (setting [2]) is 11 nM.

For orientation: Ki means a measure of affinity in units of concentration, obtained from inhibition or displacement. For orientation: melting point means the temperature of the solid-liquid transition.

The record behind these values is patent US7589108B2, “1-Heterocyclylalkyl-3-sulfonylindole or -indazole derivatives as 5-hydroxytryptamine-6 ligands” (Wyeth, priority 2002, dated 2009).
